Consider 21 molecules from patent US11273153B2, “MAPK inhibitors” (EverBrilliant Pharma Pty Ltd, priority 2014, dated 2022).

Read-outs that look alike come from different tables or passages of the source.

The target in assay [1] is active phosphorylated p38α MAPK (Homo sapiens (Human), UniProt Q16539). The assay is described as follows: Fluorescence polarisation (FP) binding assay, active enzyme. How it is done:
(§1) A number of compounds were also assessed for the inhibition of p38α MAPK activity (www.kinase-screen.mrc.ac.uk) in which a radioactive (^33P-labelled ATP) filter binding assay was used to directly measure phosphate incorporation. Table 1 summarises the binding affinities of the synthesised compounds to both forms of the enzyme as well as the inhibitory activities against p38α MAPK. By way of enabling a comparison with a non-thiophene compound the biological testing was also carried out for known inhibitor RWJ67657, shown in table 1.
(§2) FP signals were measured with a PHERAstar microplate reader (BMG Labtech) using black, low-binding half-area 96 well plates (Corning). Each binding data point was carried out in duplicate or triplicate. Data were recorded in millipolarisation (mP) units and measured at an excitation wavelength of 485 nm and an emission wavelength of 520 nm. Tris(hydroxymethyl)aminomethane (Tris) assay buffer was used in all binding experiments and consisted of 10 mM Tris, […] potassium chloride, and 3.5 mM 3-((3-cholamidopropyl)dimethylammonium)-1-propanesulfonate (Chaps) at pH 8.0.
(§3) Test compounds were prepared from dimethylsulfoxide stocks (10 mM). […] Plates were incubated at room temperature for 1 hour and FP signals were recorded. For binding experiments to active p38α MAPK, the FP signals were recorded after 2 hours incubation at room temperature. Data is represented as mean±SEM from two to three independent experiments.
A general note: Polarisation of emitted light reports the rotation of a fluorescent probe.

The target in assay [2] is inactive non-phosphorylated p38α MAPK (Homo sapiens (Human), UniProt Q16539). The assay is described as follows: Fluorescence polarisation (FP) binding assay, inactive enzyme. How it is done: as §1, §2, §3
Chain of inactive non-phosphorylated p38α MAPK (Q16539 whole entry): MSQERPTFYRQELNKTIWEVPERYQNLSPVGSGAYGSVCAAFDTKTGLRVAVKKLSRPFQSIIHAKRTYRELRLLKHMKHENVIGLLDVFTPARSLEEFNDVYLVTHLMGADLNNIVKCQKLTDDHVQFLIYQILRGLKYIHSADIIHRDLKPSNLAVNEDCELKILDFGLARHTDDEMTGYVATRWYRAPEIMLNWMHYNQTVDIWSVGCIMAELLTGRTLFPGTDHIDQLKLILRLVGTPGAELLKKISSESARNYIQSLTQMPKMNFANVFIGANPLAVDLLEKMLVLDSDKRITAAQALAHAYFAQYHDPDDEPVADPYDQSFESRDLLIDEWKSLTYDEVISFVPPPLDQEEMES
The target of assay [3] is p38α MAPK (Homo sapiens (Human), UniProt Q16539). The experiment in a line: Radioactive (33P-labelled ATP) filter binding assay of p38α MAPK activity. Format: biochemical. How it is done:
as §1

[4] abbreviates: Table 6, read-out: Ki ± SEM (μM) to active p38α.
The mark [5] stands for this setting: Table 6, read-out: Ki ± SEM (μM) to inactive p38α.
Where [6] appears, read: Table 1, read-out: Ki (μM, mean ± SEM) active p38α.
The mark [7] stands for this setting: Table 1, read-out: Ki (μM, mean ± SEM) inactive p38α.
[8] abbreviates: Table 5, read-out: Ki ± SEM (μM) to active p38α MAPK.
Setting [9] is: Table 5, read-out: Ki ± SEM (μM) to inactive p38α MAPK.
Setting [10] is: read-out: Ki to active p38α MAPK.

What is called Ki is a measure of affinity in units of concentration, obtained from inhibition or displacement. For orientation: IC50 means the point on the concentration scale where inhibition reaches its midpoint.

Chain of p38α MAPK (Q16539 whole entry): as above
Chain of active phosphorylated p38α MAPK (Q16539 whole entry): as above

As for `Cc1cccc(-c2c(C#CCCO)sc(-c3ccc(F)cc3)c2-c2ccncc2)c1` [Compound 3.48, 4-(5-(4-Fluorophenyl)-4-(pyridin-4-yl)-3-(m-tolyl)thiophen-2-yl)but-3-yn-1-ol], the Ki in assay [1] (setting [4]) and in assay [2] (setting [5]) was more than 10 µM throughout.

For the molecule `CN(C)c1ccc(-c2c(C#CCCO)sc(-c3ccc(F)cc3)c2-c2ccncc2)cc1` [Compound 3.49, 4-(3-(4-(Dimethylamino)phenyl)-5-(4-fluorophenyl)-4-(pyridin-4-yl)thiophen-2-yl)but-3-yn-1-ol], the Ki in assay [1] (setting [4]) and in assay [2] (setting [5]) was more than 10 µM each time.

On to `OCCC#Cc1sc(-c2ccc(F)cc2)c(-c2ccncc2)c1-c1ccc(F)cc1` [Compound 3.50, 4-(3,5-bis(4-Fluorophenyl)-4-(pyridin-4-yl)thiophen-2-yl)but-3-yn-1-ol], for which the inhibitory constant (Ki) in assay [1] (setting [4]) was 0.9 ± 0.4 µM; in assay [2] (setting [5]), more than 10 µM.

Turning to `OCCC#Cc1sc(-c2ccc(F)cc2)c(-c2ccncc2)c1-c1ccc(Cl)cc1` [Compound 3.51, 4-(3-(4-Chlorophenyl)-5-(4-fluorophenyl)-4-(pyridin-4-yl)thiophen-2-yl)but-3-yn-1-ol], the Ki in assay [1] (setting [4]) and in assay [2] (setting [5]) was more than 10 µM each time.

For `OCCC#Cc1sc(-c2ccc(F)cc2)c(-c2ccncc2)c1-c1ccc(C(F)(F)F)cc1` [Compound 3.52, 4-(5-(4-Fluorophenyl)-4-(pyridin-4-yl)-3-(4-(trifluoromethyl)phenyl)thiophen-2-yl)but-3-yn-1-ol], the Ki in assay [1] (setting [4]) and in assay [2] (setting [5]) was more than 10 µM throughout.

As to `CC(=O)c1ccc(-c2c(C#CCCO)sc(-c3ccc(F)cc3)c2-c2ccncc2)cc1` [Compound 3.53, 1-(4-(5-(4-Fluorophenyl)-2-(4-hydroxybut-1-yn-1-yl)-4-(pyridin-4-yl)thiophen-3-yl)phenyl)ethanone], the values for the inhibition constant Ki in assay [1] (setting [4]) and in assay [2] (setting [5]) were 2.2 ± 0.3 µM and more than 10 µM, respectively.

Regarding `OCCC#Cc1sc(-c2ccc(F)cc2)c(-c2ccncc2)c1-c1ccc(O)cc1` [Compound 3.54, 4-(5-(4-Fluorophenyl)-2-(4-hydroxybut-1-yn-1-yl)-4-(pyridin-4-yl)thiophen-3-yl)phenol], the Ki in assay [1] (setting [4]) is 3.4 µM; in assay [2] (setting [5]), more than 10 µM.

On to `OCCC#Cc1sc(-c2ccc(F)cc2)c(-c2ccncc2)c1I` [Compound 3.55, 4-(5-(4-Fluorophenyl)-3-iodo-4-(pyridin-4-yl)thiophen-2-yl)but-3-yn-1-ol], for which the Ki in assay [1] (setting [4]) and in assay [2] (setting [5]) was more than 10 µM each time.

For the molecule `OCCC#Cc1sc(-c2ccc(F)cc2)c(-c2ccncc2)c1C(O)CCc1ccccc1` (stereo not drawn) [Compound 4.6, 4-(5-(4-Fluorophenyl)-3-(1-hydroxy-3-phenylpropyl)-4-(pyridin-4-yl)thiophen-2-yl)but-3-yn-1-ol], the inhibition constant Ki in assay [1] (setting [6]) was 3.85 µM; in assay [1] (setting [4]), 3.9 µM; in assay [2] (setting [7]) it was more than 10 µM; in assay [2] (setting [5]), more than 10 µM. Besides, the 50% inhibitory concentration (IC50) in assay [3] (Table 1, average of two experiments, read-out: IC50 (μM, mean)) is 4.72 µM; in assay [3] (Table 6, read-out: IC50 (mean)), 4.72 µM; in assay [3] (read-out: IC50 (inhibitory activity against p38α MAPK)), 4.72 µM.

Take `Fc1ccc(-c2scc(C#CCc3ccccc3)c2-c2ccncc2)cc1` [Compound 4.19, 4-(2-(4-Fluorophenyl)-4-(3-phenylprop-1-yn-1-yl)thiophen-3-yl)pyridine]: the Ki was 9.44 µM in assay [1] (setting [6]), 9.4 µM in assay [1] (setting [4]), more than 10 µM in assay [2] (setting [7]) and more than 10 µM in assay [2] (setting [5]). Besides, the “binding to p38α MAPK, in words” value in assay [2] is “complete loss of binding”.

In the case of `Fc1ccc(-c2sc(I)cc2-c2ccncc2)cc1` [Compound 5.1, 4-(2-(4-Fluorophenyl)-5-iodothiophen-3-yl)pyridine], the Ki in assay [1] (setting [8]) was 2.3 µM; in assay [1] (setting [4]) it was 2.3 µM; in assay [2] (setting [9]) it was 1.9 ± 0.4 µM; in assay [2] (setting [5]), 1.9 ± 0.4 µM.

For `OCCCC#Cc1cc(-c2ccncc2)c(-c2ccc(F)cc2)s1` [Compound 5.3, 5-(5-(4-Fluorophenyl)-4-(pyridin-4-yl)thiophen-2-yl)pent-4-yn-1-ol], the Ki was determined as 0.8 ± 0.04 µM in assay [1] (setting [8]), 0.8 ± 0.04 µM in assay [1] (setting [4]), 1.7 ± 0.2 µM in assay [2] (setting [9]) and 1.7 ± 0.2 µM in assay [2] (setting [5]).

As to `NCCC#Cc1cc(-c2ccncc2)c(-c2ccc(F)cc2)s1` [Compound 5.7, 4-(5-(4-Fluorophenyl)-4-(pyridin-4-yl)thiophen-2-yl)but-3-yn-1-amine], the Ki in assay [1] (setting [8]) is 0.19 ± 0.04 µM; in assay [1] (setting [4]), 0.19 ± 0.04 µM; in assay [1] (setting [10]) it was 0.19 µM; in assay [2] (setting [9]), 1.1 ± 0.2 µM; in assay [2] (setting [5]) it was 1.1 ± 0.2 µM.

`Fc1ccc(-c2sc(C#CCCN3CCOCC3)cc2-c2ccncc2)cc1` [Compound 5.8, 4-(4-(5-(4-Fluorophenyl)-4-(pyridin-4-yl)thiophen-2-yl)but-3-yn-1-yl)morpholine]: the Ki in assay [1] (setting [8]) is 2.5 µM; in assay [1] (setting [4]), 2.5 µM; in assay [1] (setting [10]) it was 2.5 µM; in assay [2] (setting [9]) it was 2.2 ± 0.2 µM; in assay [2] (setting [5]), 2.2 ± 0.2 µM.

As for `CCOC(=O)c1cc(-c2ccncc2)c(-c2ccc(F)cc2)s1` [Compound 5.11, Ethyl 5-(4-fluorophenyl)-4-(pyridin-4-yl)thiophene-2-carboxylate], the Ki stood at 2.2 µM in assay [1] (setting [8]), 2.2 µM in assay [1] (setting [4]), 6 ± 1 µM in assay [2] (setting [9]) and 6 ± 1 µM in assay [2] (setting [5]).

With `O=C(O)c1cc(-c2ccncc2)c(-c2ccc(F)cc2)s1` [Compound 5.12, 5-(4-Fluorophenyl)-4-(pyridin-4-yl)thiophene-2-carboxylic acid], the Ki was found to be 1.4 µM in assay [1] (setting [8]), 1.4 µM in assay [1] (setting [4]), 17 ± 2 µM in assay [2] (setting [9]) and 17 ± 2 µM in assay [2] (setting [5]).

For the molecule `O=C(c1cc(-c2ccncc2)c(-c2ccc(F)cc2)s1)N1CCNCC1` [Compound 5.14, (5-(4-Fluorophenyl)-4-(pyridin-4-yl)thiophen-2-yl) (piperazin-1-yl)methanone], the Ki worked out at 0.9 ± 0.1 µM in assay [1] (setting [8]), 0.9 ± 0.1 µM in assay [1] (setting [4]), 6.3 ± 0.4 µM in assay [2] (setting [9]) and 6.3 ± 0.4 µM in assay [2] (setting [5]).

Turning to `CC(=O)c1cc(-c2ccncc2)c(-c2ccc(F)cc2)s1` [Compound 5.15, 1-(5-(4-Fluorophenyl)-4-(pyridin-4-yl)thiophen-2-yl)ethanone], the Ki in assay [1] (setting [8]) was found to be 1.4 µM; in assay [1] (setting [4]) it was 1.4 µM; in assay [2] (setting [9]) it was 6.4 ± 0.6 µM; in assay [2] (setting [5]), 6.4 ± 0.6 µM.

As to `O=C(c1ccco1)c1cc(-c2ccncc2)c(-c2ccc(F)cc2)s1` [Compound 5.17, (5-(4-Fluorophenyl)-4-(pyridin-4-yl)thiophen-2-yl) (furan-2-yl)methanone], the Ki came to 2.5 µM in assay [1] (setting [8]), 2.5 µM in assay [1] (setting [4]), 5.9 ± 0.7 µM in assay [2] (setting [9]) and 5.9 ± 0.7 µM in assay [2] (setting [5]).

Consider `Fc1ccc(-c2sc(-c3ccco3)cc2-c2ccncc2)cc1` [Compound 5.18, 4-(2-(4-Fluorophenyl)-5-(furan-2-yl)thiophen-3-yl)pyridine], for which the inhibition constant Ki was 1.7 µM in assay [1] (setting [8]), 1.7 µM in assay [1] (setting [4]), more than 10 µM in assay [2] (setting [9]) and more than 10 µM in assay [2] (setting [5]).

Consider `Fc1ccc(-c2sc(-c3c(F)c(F)nc(F)c3F)cc2-c2ccncc2)cc1` [Compound 5.19, 2,3,5,6-Tetrafluoro-4-(5-(4-fluorophenyl)-4-(pyridin-4-yl)thiophen-2-yl)pyridine], for which the Ki in assay [1] (setting [8]) is 0.8 ± 0.1 µM; in assay [1] (setting [4]), 0.8 ± 0.1 µM; in assay [1] (setting [10]), 0.8 µM; in assay [2] (setting [9]), 3.01 ± 0.03 µM; in assay [2] (setting [5]), 3.01 ± 0.03 µM.
